Source: ChEMBL document CHEMBL1201862, “PubChem BioAssay data set” (2004)
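Where inhibition never reached the appropriate level, the endpoint shown equals the highest concentration tested. Otherwise, values were interpolated linearly from a five-concentration, 48-hour dose response in 96-well plates. Abbreviation: GI50, concentration required for 50% inhibition of growth.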 Calls of active or inactive are those of the source. Rule as the data show it: active = GI50 up to about 1.1 µM and inactive = higher.

Columns and labels:
Assay in all cases: NCI tumour cell line growth inhibition, 48 h
SK-MEL-28 = test system: SK-MEL-28
SNB-75 = test system: SNB-75
MOLT-4 = test system: MOLT-4
MDA-N = test system: MDA-N
CAKI-1 = test system: CAKI-1
SW-620 = test system: SW-620
ACHN = test system: ACHN
OVCAR-4 = test system: OVCAR-4
HT-29 = test system: HT-29
A549 = test system: A549
TK-10 = test system: TK-10
NCI-H460 = test system: NCI-H460
NCI/ADR-RES = test system: NCI/ADR-RES
UACC-257 = test system: UACC-257
OVCAR-8 = test system: OVCAR-8
M14 = test system: M14
NCI-H226 = test system: NCI-H226
NCI-H522 = test system: NCI-H522
RPMI-8226 = test system: RPMI-8226
HCC 2998 = test system: HCC 2998

Measured: GI50

O=C(NCCCCCCNC(=O)c1cc(-c2ccccc2)nc2ccccc12)c1cc(-c2ccccc2)nc2ccccc12
inactive: SK-MEL-28 > 100 µM | SNB-75 33.3 µM | MOLT-4 > 100 µM | MDA-N > 100 µM | CAKI-1 > 100 µM | SW-620 > 100 µM | ACHN > 100 µM | OVCAR-4 > 100 µM | HT-29 > 100 µM | A549 > 100 µM | TK-10 > 100 µM | NCI-H460 > 100 µM | NCI/ADR-RES > 100 µM | UACC-257 > 100 µM | OVCAR-8 > 100 µM | M14 > 100 µM | NCI-H226 > 100 µM | NCI-H522 > 100 µM | RPMI-8226 > 100 µM

Nc1ccc2nc(N)n[n+]([O-])c2c1
inactive: SK-MEL-28 > 100 µM | SNB-75 92.7 µM | MOLT-4 > 100 µM | MDA-N > 100 µM | CAKI-1 > 100 µM | SW-620 > 100 µM | ACHN > 100 µM | OVCAR-4 > 100 µM | HT-29 > 100 µM | A549 > 100 µM | TK-10 > 100 µM | NCI-H460 > 100 µM | NCI/ADR-RES > 100 µM | UACC-257 > 100 µM | OVCAR-8 > 100 µM | M14 > 100 µM | NCI-H226 > 100 µM | NCI-H522 > 100 µM | RPMI-8226 > 100 µM

c1ccc2c(c1)nc1n2CCCn2ccnc2-1
inactive: SK-MEL-28 > 100 µM | SNB-75 > 100 µM | MOLT-4 > 100 µM | MDA-N > 100 µM | SW-620 > 100 µM | ACHN 73.6 µM | OVCAR-4 > 100 µM | HT-29 > 100 µM | A549 > 100 µM | NCI-H460 > 100 µM | NCI/ADR-RES 27 µM | OVCAR-8 67.5 µM | M14 > 100 µM | NCI-H226 68.7 µM | NCI-H522 > 100 µM | RPMI-8226 > 100 µM

Cc1ccc(Cl)c2c(=O)c3ccc(N)cc3sc12
inactive: SNB-75 13.6 µM | MOLT-4 11.7 µM | MDA-N 30.1 µM | CAKI-1 24.9 µM | ACHN 21.4 µM | HT-29 17.5 µM | A549 24.9 µM | TK-10 38.3 µM | NCI-H460 31.9 µM | NCI/ADR-RES 15.1 µM | UACC-257 25.8 µM | OVCAR-8 13.2 µM | M14 28.4 µM | NCI-H226 17.3 µM | RPMI-8226 15 µM

O=S(=O)(c1ccc(/N=N/O)nc1)c1ccc2ccccc2c1
inactive: SK-MEL-28 > 100 µM | SNB-75 22.1 µM | MOLT-4 > 10 µM | MDA-N > 100 µM | CAKI-1 88.5 µM | SW-620 > 100 µM | ACHN > 100 µM | OVCAR-4 32.6 µM | HT-29 65.8 µM | A549 > 100 µM | TK-10 94 µM | NCI-H460 65.8 µM | NCI/ADR-RES > 100 µM | UACC-257 > 100 µM | OVCAR-8 > 100 µM | M14 > 100 µM | NCI-H226 > 100 µM | NCI-H522 > 100 µM

CCCCCCCCCCCCCCCCCCNc1ccn(C2OC(COP(=O)(O)OCC3CCC(n4cnc5c(=O)[nH]cnc54)O3)C(O)C2O)c(=O)n1 (stereo not drawn)
inactive: SK-MEL-28 > 100 µM | SNB-75 > 100 µM | MOLT-4 > 100 µM | MDA-N > 100 µM | CAKI-1 > 100 µM | SW-620 > 100 µM | ACHN > 100 µM | OVCAR-4 > 100 µM | HT-29 > 100 µM | A549 > 100 µM | TK-10 19.5 µM | NCI-H460 > 100 µM | NCI/ADR-RES > 100 µM | UACC-257 > 100 µM | OVCAR-8 > 100 µM | M14 > 100 µM | NCI-H226 > 100 µM | NCI-H522 51.5 µM

CC1=CC2(O)OC3(CC2=C(C)C)C(C)CCC13 (stereo not drawn)
inactive: SNB-75 58.5 µM | MOLT-4 > 100 µM | MDA-N > 100 µM | CAKI-1 > 100 µM | SW-620 > 100 µM | ACHN > 100 µM | OVCAR-4 > 100 µM | HT-29 > 100 µM | A549 > 100 µM | TK-10 > 100 µM | NCI/ADR-RES > 100 µM | UACC-257 > 100 µM | OVCAR-8 > 100 µM | M14 > 100 µM | NCI-H226 > 100 µM | NCI-H522 > 100 µM | RPMI-8226 > 100 µM

Br/C(=N\N=c1/nn[nH][nH]1)c1ccncc1
inactive: SK-MEL-28 > 100 µM | SNB-75 > 100 µM | MOLT-4 > 100 µM | MDA-N > 100 µM | CAKI-1 > 100 µM | SW-620 > 100 µM | ACHN > 100 µM | OVCAR-4 > 100 µM | HT-29 > 100 µM | A549 > 100 µM | TK-10 > 100 µM | NCI-H460 > 100 µM | NCI/ADR-RES > 100 µM | UACC-257 > 100 µM | OVCAR-8 > 100 µM | M14 > 100 µM | NCI-H226 > 100 µM | NCI-H522 > 100 µM | RPMI-8226 > 100 µM

NCCNCC(O)CO (stereo not drawn)
inactive: SK-MEL-28 > 100 µM | SNB-75 > 100 µM | MOLT-4 > 100 µM | MDA-N > 100 µM | CAKI-1 > 100 µM | SW-620 > 100 µM | ACHN > 100 µM | OVCAR-4 > 100 µM | HT-29 > 100 µM | A549 > 100 µM | TK-10 > 100 µM | NCI-H460 > 100 µM | NCI/ADR-RES > 100 µM | UACC-257 > 100 µM | OVCAR-8 > 100 µM | M14 > 100 µM | NCI-H226 > 100 µM | NCI-H522 > 100 µM | RPMI-8226 > 100 µM

CCOC(=O)CSc1nc(-c2ccc(Cl)cc2)c(C#N)c(=O)[nH]1
inactive: SK-MEL-28 > 100 µM | SNB-75 63.7 µM | MOLT-4 > 100 µM | CAKI-1 > 100 µM | SW-620 > 100 µM | ACHN > 100 µM | OVCAR-4 > 100 µM | HT-29 > 100 µM | A549 > 100 µM | TK-10 > 100 µM | NCI-H460 > 100 µM | NCI/ADR-RES > 100 µM | UACC-257 > 100 µM | OVCAR-8 > 100 µM | M14 > 100 µM | NCI-H226 82.4 µM | NCI-H522 58.5 µM | HCC 2998 76 µM | RPMI-8226 > 100 µM

Cc1cc(CNC(=O)OCc2ccccc2)c(C)c2c1Oc1ccccc1O2
inactive: SK-MEL-28 > 100 µM | SNB-75 11.8 µM | MOLT-4 > 100 µM | CAKI-1 21.1 µM | SW-620 > 100 µM | ACHN 43.8 µM | OVCAR-4 21.3 µM | HT-29 20.2 µM | A549 20.9 µM | TK-10 41.8 µM | NCI-H460 > 100 µM | NCI/ADR-RES 19 µM | UACC-257 > 100 µM | OVCAR-8 17.1 µM | M14 69.7 µM | NCI-H226 26.5 µM | NCI-H522 13.9 µM | HCC 2998 > 100 µM | RPMI-8226 > 100 µM
